# pIC50: −log10 of the molar value.
# System: 935938-334-R-J1-PDC spheroids with HUVEC/MSC, viability
# Experiment: Anticancer human tumor 935938-334-R-J1-PDC patient-derived small intestine adenocarcinoma cell line growth inhibition [PI3K]
# Conditions: for pIC50: curve of first compound; for viability, T/C: stronger effect = lower value
# Outline: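 Tumor cells were combined with HUVEC and MSCs into spheroids, then dosed with PI3K-inhibitor combinations over half-log ranges capped near clinical Cmax or 10 microM.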
# [1] = second compound 0.0316 µM, first compound 0.0316 µM
# [2] = second compound 0.0316 µM, first compound 0.1 µM
# [3] = second compound 0.0316 µM, first compound 0.316 µM
# [4] = second compound 0.0316 µM, first compound 1 µM
# [5] = second compound 0.0316 µM, first compound 3.16 µM
# [6] = second compound 0.0316 µM, first compound 10 µM
# [7] = second compound 0.1 µM, first compound 0.0316 µM
# [8] = second compound 0.1 µM, first compound 0.1 µM
# [9] = second compound 0.1 µM, first compound 0.316 µM
# [10] = second compound 0.1 µM, first compound 1 µM
# [11] = second compound 0.1 µM, first compound 3.16 µM
# [12] = second compound 0.1 µM, first compound 10 µM
# [13] = second compound 0.316 µM, first compound 0.0316 µM
# [14] = second compound 0.316 µM, first compound 0.1 µM
# [15] = second compound 0.316 µM, first compound 0.316 µM
# [16] = second compound 0.316 µM, first compound 1 µM
# [17] = second compound 0.316 µM, first compound 3.16 µM
# [18] = second compound 0.316 µM, first compound 10 µM
# [19] = second compound 1 µM, first compound 0.0316 µM
# [20] = second compound 1 µM, first compound 0.1 µM
# [21] = second compound 1 µM, first compound 0.316 µM
# [22] = second compound 1 µM, first compound 1 µM
# [23] = second compound 1 µM, first compound 3.16 µM
# [24] = second compound 1 µM, first compound 10 µM
# 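Note: compound exposure lasted seven days before viability was read.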
# 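Throughout, for viability, T/C: percent of vehicle DMSO treated spheroid viability so 100% = untreated.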
smiles,measurement,setting,value
CC1(C)CCC(Nc2ncc(C(F)(F)F)c(-c3c[nH]c4c(P(C)(C)=O)c(C#N)ccc34)n2)CN1 (stereo unspecified) + CC(Nc1ccc2c(c1)OCCn1cc(N3C(=O)OCC3C(F)F)nc1-2)C(N)=O,pIC50,second compound 0.00316 µM,> 7.50
same,pIC50,second compound 0.01 µM,> 7.50
same,pIC50,second compound 0.0316 µM,> 7.50
same,pIC50,second compound 0.1 µM,> 7.50
same,pIC50,second compound 0.316 µM,> 7.50
same,pIC50,second compound 1 µM,> 7.50
same,"viability, T/C","second compound 0.00316 µM, first compound 0.0316 µM",46.2%
same,"viability, T/C","second compound 0.00316 µM, first compound 0.1 µM",35%
same,"viability, T/C","second compound 0.00316 µM, first compound 0.316 µM",29.9%
same,"viability, T/C","second compound 0.00316 µM, first compound 1 µM",33.8%
same,"viability, T/C","second compound 0.00316 µM, first compound 3.16 µM",25.8%
same,"viability, T/C","second compound 0.00316 µM, first compound 10 µM",7.62%
same,"viability, T/C","second compound 0.01 µM, first compound 0.0316 µM",42.7%
same,"viability, T/C","second compound 0.01 µM, first compound 0.1 µM",36.3%
same,"viability, T/C","second compound 0.01 µM, first compound 0.316 µM",27.2%
same,"viability, T/C","second compound 0.01 µM, first compound 1 µM",28.6%
same,"viability, T/C","second compound 0.01 µM, first compound 3.16 µM",30.4%
same,"viability, T/C","second compound 0.01 µM, first compound 10 µM",5.01%
same,"viability, T/C",[1],42.5%
same,"viability, T/C",[2],40.5%
same,"viability, T/C",[3],33.8%
same,"viability, T/C",[4],27.1%
same,"viability, T/C",[5],35.5%
same,"viability, T/C",[6],6.2%
same,"viability, T/C",[7],36.8%
same,"viability, T/C",[8],39.5%
same,"viability, T/C",[9],30%
same,"viability, T/C",[10],29.6%
same,"viability, T/C",[11],31.3%
same,"viability, T/C",[12],4.61%
same,"viability, T/C",[13],37.5%
same,"viability, T/C",[14],29.5%
same,"viability, T/C",[15],27.2%
same,"viability, T/C",[16],29.2%
same,"viability, T/C",[17],23.1%
same,"viability, T/C",[18],6.76%
same,"viability, T/C",[19],29.5%
same,"viability, T/C",[20],24%
same,"viability, T/C",[21],24.7%
same,"viability, T/C",[22],22.9%
same,"viability, T/C",[23],18.3%
same,"viability, T/C",[24],3.56%
CNC(=O)c1ccc(N2C(=S)N(c3ccc(C#N)c(C(F)(F)F)c3)C(=O)C2(C)C)cc1F + CC(Nc1ncnc2nc[nH]c12)c1cc2cccc(Cl)c2c(=O)n1-c1ccccc1,pIC50,second compound 0.0316 µM,< 5.00
same,pIC50,second compound 0.1 µM,< 5.00
same,pIC50,second compound 0.316 µM,< 5.00
same,pIC50,second compound 1 µM,< 5.00
same,pIC50,second compound 3.16 µM,< 5.00
same,pIC50,second compound 10 µM,< 5.00
same,"viability, T/C",[1],102%
same,"viability, T/C",[2],94.8%
same,"viability, T/C",[3],136%
same,"viability, T/C",[4],85.2%
same,"viability, T/C",[5],78.2%
same,"viability, T/C",[6],133%
same,"viability, T/C",[7],98.1%
same,"viability, T/C",[8],84.4%
same,"viability, T/C",[9],102%
same,"viability, T/C",[10],90%
same,"viability, T/C",[11],81.3%
same,"viability, T/C",[12],84.7%
same,"viability, T/C",[13],100%
same,"viability, T/C",[14],72.2%
same,"viability, T/C",[15],95.3%
same,"viability, T/C",[16],83.6%
same,"viability, T/C",[17],95%
same,"viability, T/C",[18],65.4%
same,"viability, T/C",[19],97.4%
same,"viability, T/C",[20],83.9%
same,"viability, T/C",[21],70.8%
same,"viability, T/C",[22],69.7%
same,"viability, T/C",[23],96%
same,"viability, T/C",[24],73.5%
same,"viability, T/C","second compound 3.16 µM, first compound 0.0316 µM",72.8%
same,"viability, T/C","second compound 3.16 µM, first compound 0.1 µM",91.4%
same,"viability, T/C","second compound 3.16 µM, first compound 0.316 µM",103%
same,"viability, T/C","second compound 3.16 µM, first compound 1 µM",99.9%
same,"viability, T/C","second compound 3.16 µM, first compound 3.16 µM",61%
same,"viability, T/C","second compound 3.16 µM, first compound 10 µM",81.8%
same,"viability, T/C","second compound 10 µM, first compound 0.0316 µM",80.8%
same,"viability, T/C","second compound 10 µM, first compound 0.1 µM",92%
same,"viability, T/C","second compound 10 µM, first compound 0.316 µM",72.3%
same,"viability, T/C","second compound 10 µM, first compound 1 µM",71.6%
same,"viability, T/C","second compound 10 µM, first compound 3.16 µM",75.3%
same,"viability, T/C","second compound 10 µM, first compound 10 µM",63.9%
Cn1cnc2c(F)c(Nc3ccc(Br)cc3Cl)c(C(=O)NOCCO)cc21 + CC(Nc1ncnc2nc[nH]c12)c1cc2cccc(Cl)c2c(=O)n1-c1ccccc1,pIC50,second compound 0.0316 µM,7.16
same,pIC50,second compound 0.1 µM,6.96
same,pIC50,second compound 0.316 µM,7.11
same,pIC50,second compound 1 µM,7.09
same,pIC50,second compound 3.16 µM,7.52
same,pIC50,second compound 10 µM,7.29
same,"viability, T/C","second compound 0.0316 µM, first compound 0.00949 µM",82.2%
same,"viability, T/C","second compound 0.0316 µM, first compound 0.03 µM",63.5%
same,"viability, T/C","second compound 0.0316 µM, first compound 0.0949 µM",43.2%
same,"viability, T/C","second compound 0.0316 µM, first compound 0.3 µM",34.5%
same,"viability, T/C","second compound 0.0316 µM, first compound 0.949 µM",27.5%
same,"viability, T/C","second compound 0.0316 µM, first compound 3 µM",21.8%
same,"viability, T/C","second compound 0.1 µM, first compound 0.00949 µM",76%
same,"viability, T/C","second compound 0.1 µM, first compound 0.03 µM",71.7%
same,"viability, T/C","second compound 0.1 µM, first compound 0.0949 µM",47.4%
same,"viability, T/C","second compound 0.1 µM, first compound 0.3 µM",38.2%
same,"viability, T/C","second compound 0.1 µM, first compound 0.949 µM",30.9%
same,"viability, T/C","second compound 0.1 µM, first compound 3 µM",20.8%
same,"viability, T/C","second compound 0.316 µM, first compound 0.00949 µM",73.5%
same,"viability, T/C","second compound 0.316 µM, first compound 0.03 µM",70.4%
same,"viability, T/C","second compound 0.316 µM, first compound 0.0949 µM",41.4%
same,"viability, T/C","second compound 0.316 µM, first compound 0.3 µM",35.4%
same,"viability, T/C","second compound 0.316 µM, first compound 0.949 µM",22.3%
same,"viability, T/C","second compound 0.316 µM, first compound 3 µM",20%
same,"viability, T/C","second compound 1 µM, first compound 0.00949 µM",73.9%
same,"viability, T/C","second compound 1 µM, first compound 0.03 µM",65.6%
same,"viability, T/C","second compound 1 µM, first compound 0.0949 µM",47.7%
same,"viability, T/C","second compound 1 µM, first compound 0.3 µM",30.9%
same,"viability, T/C","second compound 1 µM, first compound 0.949 µM",26.2%
same,"viability, T/C","second compound 1 µM, first compound 3 µM",22.6%
same,"viability, T/C","second compound 3.16 µM, first compound 0.00949 µM",51%
same,"viability, T/C","second compound 3.16 µM, first compound 0.03 µM",56.6%
same,"viability, T/C","second compound 3.16 µM, first compound 0.0949 µM",38.6%
same,"viability, T/C","second compound 3.16 µM, first compound 0.3 µM",30.6%
same,"viability, T/C","second compound 3.16 µM, first compound 0.949 µM",27.4%
same,"viability, T/C","second compound 3.16 µM, first compound 3 µM",16%
same,"viability, T/C","second compound 10 µM, first compound 0.00949 µM",65.2%
same,"viability, T/C","second compound 10 µM, first compound 0.03 µM",59.6%
same,"viability, T/C","second compound 10 µM, first compound 0.0949 µM",39.4%
same,"viability, T/C","second compound 10 µM, first compound 0.3 µM",25.6%
same,"viability, T/C","second compound 10 µM, first compound 0.949 µM",22.6%
same,"viability, T/C","second compound 10 µM, first compound 3 µM",17.6%

# — PubChem BioAssay AID1963966 (Molecular Pharmacology Branch, DTP, NCI, 2024)
